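Grown in 96-well plates, cells were treated for 48 hours with each compound at five concentrations. Insufficient inhibition: endpoint recorded as highest concentration tested. TGI marks complete inhibition of growth.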
Key:
Assay in all cases: DTP human tumour cell line panel, 48 h
DU-145 prostate = test system: DU-145 prostate
KM12 colon = test system: KM12 colon
MCF7 breast = test system: MCF7 breast
MDA-MB-231 breast = test system: MDA-MB-231 breast
MDA-N = test system: MDA-N
NCI-H23 lung = test system: NCI-H23 lung
OVCAR-5 ovarian = test system: OVCAR-5 ovarian
OVCAR-8 ovarian = test system: OVCAR-8 ovarian
SW-620 colon = test system: SW-620 colon
COLO 205 colon = test system: COLO 205 colon

SMILES: CC(=O)Oc1ccc2cc(Oc3ccccc3)c(=O)oc2c1
- TGI (DU-145 prostate): > 100 µM
- TGI (KM12 colon): > 100 µM
- TGI (MCF7 breast): > 100 µM
- TGI (MDA-MB-231 breast): > 100 µM
- TGI (MDA-N): > 100 µM
- TGI (NCI-H23 lung): > 100 µM
- TGI (OVCAR-5 ovarian): > 100 µM
- TGI (OVCAR-8 ovarian): > 100 µM
- TGI (SW-620 colon): > 100 µM

SMILES: OC1CSCCSCCCSCCSC1
- TGI (COLO 205 colon): > 100 µM
- TGI (DU-145 prostate): > 100 µM
- TGI (MCF7 breast): > 100 µM
- TGI (MDA-MB-231 breast): > 100 µM
- TGI (MDA-N): > 100 µM
- TGI (NCI-H23 lung): > 100 µM
- TGI (OVCAR-5 ovarian): > 100 µM
- TGI (OVCAR-8 ovarian): > 100 µM
- TGI (SW-620 colon): > 100 µM

SMILES: C=CCCCCCCCCC(=O)ON(Cc1ccc(O)c(OC)c1)C(=O)C(F)(F)F
- TGI (COLO 205 colon): > 100 µM
- TGI (DU-145 prostate): > 100 µM
- TGI (KM12 colon): > 100 µM
- TGI (MCF7 breast): > 100 µM
- TGI (MDA-MB-231 breast): > 100 µM
- TGI (NCI-H23 lung): > 100 µM
- TGI (OVCAR-5 ovarian): > 100 µM
- TGI (OVCAR-8 ovarian): > 100 µM
- TGI (SW-620 colon): > 100 µM

SMILES: Cc1cc2c3c(c1)CCCN3CCC2
- TGI (COLO 205 colon): > 10 µM
- TGI (DU-145 prostate): > 10 µM
- TGI (KM12 colon): > 10 µM
- TGI (MCF7 breast): > 10 µM
- TGI (MDA-MB-231 breast): > 10 µM
- TGI (MDA-N): > 10 µM
- TGI (NCI-H23 lung): > 10 µM
- TGI (OVCAR-8 ovarian): > 10 µM
- TGI (SW-620 colon): > 10 µM

SMILES: N=C(N)c1ccc(N=Nc2c(O)ccc3cc(O)ccc23)cc1
- TGI (COLO 205 colon): > 100 µM
- TGI (KM12 colon): > 100 µM
- TGI (MCF7 breast): > 100 µM
- TGI (MDA-MB-231 breast): > 100 µM
- TGI (OVCAR-5 ovarian): > 100 µM
- TGI (OVCAR-8 ovarian): > 100 µM
- TGI (SW-620 colon): > 100 µM

SMILES: C=CC1(O)CCCC=C1COCc1ccccc1 (stereo unspecified)
- TGI (COLO 205 colon): > 100 µM
- TGI (DU-145 prostate): > 100 µM
- TGI (KM12 colon): > 100 µM
- TGI (MCF7 breast): > 100 µM
- TGI (MDA-MB-231 breast): > 100 µM
- TGI (MDA-N): > 100 µM
- TGI (NCI-H23 lung): > 100 µM
- TGI (OVCAR-5 ovarian): > 100 µM
- TGI (OVCAR-8 ovarian): > 100 µM

SMILES: CC(=O)N1c2ccccc2[C@H]2CCc3c([nH]c4ccccc34)[C@H]21
- TGI (COLO 205 colon): 27.6 µM
- TGI (DU-145 prostate): 61.9 µM
- TGI (KM12 colon): 39.5 µM
- TGI (MDA-MB-231 breast): 31.5 µM
- TGI (MDA-N): 49.3 µM
- TGI (NCI-H23 lung): 31.2 µM
- TGI (OVCAR-5 ovarian): > 100 µM
- TGI (OVCAR-8 ovarian): > 100 µM
- TGI (SW-620 colon): 37.3 µM

SMILES: O=C1c2ccccc2/C=C\C(c2ccccc2)=N/N1c1ccccc1Cl
- TGI (DU-145 prostate): > 100 µM
- TGI (KM12 colon): 64.4 µM
- TGI (MCF7 breast): 63.9 µM
- TGI (MDA-MB-231 breast): 49.2 µM
- TGI (MDA-N): 14.7 µM
- TGI (NCI-H23 lung): 93.6 µM
- TGI (OVCAR-5 ovarian): > 100 µM
- TGI (OVCAR-8 ovarian): > 100 µM
- TGI (SW-620 colon): > 100 µM

SMILES: Clc1ccc(Cn2cc(/C=N/n3cnnc3)c3ccccc32)cc1
- TGI (COLO 205 colon): > 100 µM
- TGI (DU-145 prostate): > 100 µM
- TGI (KM12 colon): > 100 µM
- TGI (MCF7 breast): > 100 µM
- TGI (MDA-MB-231 breast): 74.5 µM
- TGI (NCI-H23 lung): > 100 µM
- TGI (OVCAR-5 ovarian): 42.5 µM
- TGI (OVCAR-8 ovarian): > 100 µM
- TGI (SW-620 colon): > 100 µM

SMILES: O=C(O)c1ccccc1CC(Cc1ccccc1)C(=O)O (stereo unspecified)
- TGI (COLO 205 colon): > 100 µM
- TGI (DU-145 prostate): > 100 µM
- TGI (KM12 colon): > 100 µM
- TGI (MDA-MB-231 breast): > 100 µM
- TGI (MDA-N): > 100 µM
- TGI (NCI-H23 lung): > 100 µM
- TGI (OVCAR-5 ovarian): > 100 µM
- TGI (OVCAR-8 ovarian): > 100 µM
- TGI (SW-620 colon): > 100 µM

SMILES: CC(N)=O.[Cl][Pt][Cl].[NH-]c1ccn(C2OC(CO)C(O)C2O)c(=O)n1 (stereo unspecified)
- TGI (COLO 205 colon): > 100 µM
- TGI (DU-145 prostate): > 100 µM
- TGI (KM12 colon): > 100 µM
- TGI (MCF7 breast): > 100 µM
- TGI (MDA-MB-231 breast): > 100 µM
- TGI (NCI-H23 lung): > 100 µM
- TGI (OVCAR-5 ovarian): > 100 µM
- TGI (OVCAR-8 ovarian): > 100 µM
- TGI (SW-620 colon): > 100 µM

SMILES: Nc1c(C(=O)c2ccccc2)nnc2ccccc12
- TGI (COLO 205 colon): 36 µM
- TGI (DU-145 prostate): 69.9 µM
- TGI (KM12 colon): 67.7 µM
- TGI (MCF7 breast): 62.6 µM
- TGI (MDA-MB-231 breast): 53.3 µM
- TGI (NCI-H23 lung): > 100 µM
- TGI (OVCAR-5 ovarian): > 100 µM
- TGI (OVCAR-8 ovarian): > 100 µM
- TGI (SW-620 colon): > 100 µM

From PubChem BioAssay (NCI)
